Results published in ChEMBL document CHEMBL4325823 (Medchemcomm, 2018).
Values after ≈ are worked out from the molar mass of the structure shown.

Columns and labels:
[1] = Inhibition of Enterobacteriaceae PBP2 by Bocillin FL-based fluorescence assay
Enterobacteriaceae [2] = test: Inhibition of ESBL in Enterobacteriaceae assessed as potentiation of piperacillin-induced antibacterial activity by measuring piperacillin MIC at 2 ug/ml by agar dilution method
Enterobacteriaceae [3] = test: Inhibition of ESBL in Enterobacteriaceae assessed as potentiation of cefepime-induced antibacterial activity by measuring cefepime MIC at 2 ug/ml by agar dilution method
Enterobacteriaceae [4] = test: Inhibition of ESBL in Enterobacteriaceae assessed as potentiation of aztreonam-induced antibacterial activity by measuring aztreonam MIC at 2 ug/ml by agar dilution method
Enterobacteriaceae [5] = test: Inhibition of KPC in Enterobacteriaceae assessed as potentiation of piperacillin-induced antibacterial activity by measuring piperacillin MIC at 2 ug/ml by agar dilution method
Enterobacteriaceae [6] = test: Inhibition of KPC in Enterobacteriaceae assessed as potentiation of cefepime-induced antibacterial activity by measuring cefepime MIC at 2 ug/ml by agar dilution method
Enterobacteriaceae [7] = test: Inhibition of KPC in Enterobacteriaceae assessed as potentiation of aztreonam-induced antibacterial activity by measuring aztreonam MIC at 2 ug/ml by agar dilution method
Enterobacteriaceae [8] = test: Inhibition of OXA in Enterobacteriaceae assessed as potentiation of piperacillin-induced antibacterial activity by measuring piperacillin MIC at 2 ug/ml by agar dilution method
Enterobacteriaceae [9] = test: Inhibition of OXA in Enterobacteriaceae assessed as potentiation of cefepime-induced antibacterial activity by measuring cefepime MIC at 2 ug/ml by agar dilution method
Enterobacteriaceae [10] = test: Inhibition of OXA in Enterobacteriaceae assessed as potentiation of aztreonam-induced antibacterial activity by measuring aztreonam MIC at 2 ug/ml by agar dilution method
Enterobacteriaceae [11] = test: Inhibition of KPC in Enterobacteriaceae assessed as potentiation of meropenem-induced antibacterial activity by measuring meropenem MIC at 2 ug/ml by agar dilution method (reference value: 8.43 ug/ml)
Enterobacteriaceae [12] = test: Inhibition of MBL in Enterobacteriaceae assessed as potentiation of aztreonam-induced antibacterial activity by measuring aztreonam MIC at 2 ug/ml by agar dilution method (reference value: 4.68 ug/ml)
Bacteroides sp. = test: Antibacterial activity against Bacteroides sp.; format: functional

| IC50 [1] | MIC (Enterobacteriaceae [2]) | MIC (Enterobacteriaceae [3]) | MIC (Enterobacteriaceae [4]) | MIC (Enterobacteriaceae [5]) | MIC (Enterobacteriaceae [6]) | MIC (Enterobacteriaceae [7]) | MIC (Enterobacteriaceae [8]) | MIC (Enterobacteriaceae [9]) | MIC (Enterobacteriaceae [10]) | MIC (Enterobacteriaceae [11]) | MIC (Enterobacteriaceae [12]) | MIC90 (Bacteroides sp.) | SMILES |
| --- | --- | --- | --- | --- | --- | --- | --- | --- | --- | --- | --- | --- | --- |
| 0.12 µg/mL (≈ 0.37 µM) | < 1 µg/mL | < 1 µg/mL | < 1 µg/mL | < 1 µg/mL | < 1 µg/mL | < 1 µg/mL | < 1 µg/mL | < 1 µg/mL | < 1 µg/mL | < 1 µg/mL | 0.072 µg/mL | – | NCCONC(=O)[C@@H]1CC[C@@H]2CN1C(=O)N2OS(=O)(=O)O [NACUBACTAM] |
| – | – | – | – | – | – | – | – | – | – | – | – | ≤ 1 µg/mL | C[C@@H](O)[C@H]1C(=O)N2C(C(=O)O)=C(SCCNC=N)C[C@H]12 [IMIPENEM ANHYDROUS] |
